COc1ccc2nc(SCc3ncc(C)c(OC)c3C)[nH]c2c1
solubility (mole fraction)
Conditions	in acetone	in ethanol	in ethyl acetate	in isopropanol	in methanol	in n-butanol	in n-propanol
280.35 K	0.005	0.0144	0.0033	0.0032	0.0127	0.0103	0.0076
284.35 K	0.0065	0.0189	0.004	0.0044	0.0178	0.0134	0.0101
288.15 K	0.0083	0.0248	0.0049	0.0058	0.0239	0.0171	0.0134
292.25 K	0.0108	0.0323	0.0058	0.0079	0.0322	0.0218	0.0178
296.65 K	0.014	0.0412	0.0073	0.0108	0.0442	0.0292	0.0234
300.25 K	0.0172	0.0511	0.0085	0.014	0.0559	0.0356	0.0296
303.15 K	0.0203	0.0606	0.0098	0.0172	0.0668	0.0425	0.0359
307.65 K	0.0263	0.0775	0.0122	0.0234	0.0887	0.0549	0.047
311.15 K	0.0319	0.0946	0.0142	0.0286	0.11	0.0661	0.0567
315.15 K	0.039	0.115	0.0165	0.037	0.138	0.0824	0.0713
319.65 K	0.0496	0.141	0.0208	0.0482	0.172	0.104	0.0914
